Data taken from PubChem BioAssay AID1963850 (Molecular Pharmacology Branch, DTP, NCI, 2024).

Test system: 192522-019-R-J2-PDC complex tumor spheroid viability
Assay: Anticancer human tumor 192522-019-R-J2-PDC patient-derived colon adenocarcinoma cell line growth inhibition [POLQ]
Settings: for IC50: curve of first compound; for viability, T/C: stronger effect = lower value
Outline: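 PDC + HUVEC + MSC complex spheroids; POLQ inhibitors ± partner drugs; top conc. at/near clinical Cmax, else 10 microM (SN-38 1 microM), half-log dilutions; 37 degrees C, 5% CO2.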
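Also: spheroids exposed to drugs for seven days before reading.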
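For viability, T/C in this document: 100% = DMSO vehicle control viability in luminescence.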

CC(=O)O[C@H]1C(=O)[C@@]2(C)[C@H]([C@H](OC(=O)c3ccccc3)[C@]3(O)C[C@H](OC(=O)[C@H](O)[C@@H](NC(=O)c4ccccc4)c4ccccc4)C(C)=C1C3(C)C)[C@]1(OC(C)=O)CO[C@@H]1C[C@@H]2O + Nc1ccc(C#CCN(C(=O)Cc2ncc(C(F)(F)F)cc2C(F)(F)F)c2ccc(F)cc2)nn1
IC50 (second compound 0.0316 µM): > 3000 nM
IC50 (second compound 0.1 µM): > 3000 nM
IC50 (second compound 0.316 µM): > 3000 nM
IC50 (second compound 1 µM): > 3000 nM
IC50 (second compound 3.16 µM): > 3000 nM
IC50 (second compound 10 µM): > 3000 nM
viability, T/C (second compound 0.0316 µM, first compound 0.00949 µM): 95.6%
viability, T/C (second compound 0.0316 µM, first compound 0.03 µM): 65.1%
viability, T/C (second compound 0.0316 µM, first compound 0.0949 µM): 50.2%
viability, T/C (second compound 0.0316 µM, first compound 0.3 µM): 57%
viability, T/C (second compound 0.0316 µM, first compound 0.949 µM): 56.9%
viability, T/C (second compound 0.0316 µM, first compound 3 µM): 60.2%
viability, T/C (second compound 0.1 µM, first compound 0.00949 µM): 95.3%
viability, T/C (second compound 0.1 µM, first compound 0.03 µM): 63.3%
viability, T/C (second compound 0.1 µM, first compound 0.0949 µM): 55.4%
viability, T/C (second compound 0.1 µM, first compound 0.3 µM): 54.8%
viability, T/C (second compound 0.1 µM, first compound 0.949 µM): 61.2%
viability, T/C (second compound 0.1 µM, first compound 3 µM): 50.2%
viability, T/C (second compound 0.316 µM, first compound 0.00949 µM): 88.7%
viability, T/C (second compound 0.316 µM, first compound 0.03 µM): 69.6%
viability, T/C (second compound 0.316 µM, first compound 0.0949 µM): 54.2%
viability, T/C (second compound 0.316 µM, first compound 0.3 µM): 58.2%
viability, T/C (second compound 0.316 µM, first compound 0.949 µM): 57.9%
viability, T/C (second compound 0.316 µM, first compound 3 µM): 54.9%
viability, T/C (second compound 1 µM, first compound 0.00949 µM): 86.3%
viability, T/C (second compound 1 µM, first compound 0.03 µM): 62.6%
viability, T/C (second compound 1 µM, first compound 0.0949 µM): 53.7%
viability, T/C (second compound 1 µM, first compound 0.3 µM): 51.3%
viability, T/C (second compound 1 µM, first compound 0.949 µM): 57.4%
viability, T/C (second compound 1 µM, first compound 3 µM): 50.9%
viability, T/C (second compound 3.16 µM, first compound 0.00949 µM): 85.5%
viability, T/C (second compound 3.16 µM, first compound 0.03 µM): 65.7%
viability, T/C (second compound 3.16 µM, first compound 0.0949 µM): 55.8%
viability, T/C (second compound 3.16 µM, first compound 0.3 µM): 54.6%
viability, T/C (second compound 3.16 µM, first compound 0.949 µM): 59.2%
viability, T/C (second compound 3.16 µM, first compound 3 µM): 56%
viability, T/C (second compound 10 µM, first compound 0.00949 µM): 80%
viability, T/C (second compound 10 µM, first compound 0.03 µM): 66.3%
viability, T/C (second compound 10 µM, first compound 0.0949 µM): 60.2%
viability, T/C (second compound 10 µM, first compound 0.3 µM): 61.2%
viability, T/C (second compound 10 µM, first compound 0.949 µM): 60.9%
viability, T/C (second compound 10 µM, first compound 3 µM): 56.5%

CC[C@@]1(O)C(=O)OCc2c1cc1n(c2=O)Cc2cc3c(CN(C)C)c(O)ccc3nc2-1 + Nc1ccc(C#CCN(C(=O)Cc2ncc(C(F)(F)F)cc2C(F)(F)F)c2ccc(F)cc2)nn1
IC50 (second compound 0.0316 µM): > 100 nM
IC50 (second compound 0.1 µM): > 100 nM
IC50 (second compound 0.316 µM): > 100 nM
IC50 (second compound 1 µM): > 100 nM
IC50 (second compound 3.16 µM): > 100 nM
IC50 (second compound 10 µM): > 100 nM
viability, T/C (second compound 0.0316 µM, first compound 0.000316 µM): 96.2%
viability, T/C (second compound 0.0316 µM, first compound 0.001 µM): 103%
viability, T/C (second compound 0.0316 µM, first compound 0.00316 µM): 97.1%
viability, T/C (second compound 0.0316 µM, first compound 0.01 µM): 108%
viability, T/C (second compound 0.0316 µM, first compound 0.0316 µM): 98.5%
viability, T/C (second compound 0.0316 µM, first compound 0.1 µM): 77.3%
viability, T/C (second compound 0.1 µM, first compound 0.000316 µM): 111%
viability, T/C (second compound 0.1 µM, first compound 0.001 µM): 105%
viability, T/C (second compound 0.1 µM, first compound 0.00316 µM): 103%
viability, T/C (second compound 0.1 µM, first compound 0.01 µM): 99%
viability, T/C (second compound 0.1 µM, first compound 0.0316 µM): 107%
viability, T/C (second compound 0.1 µM, first compound 0.1 µM): 79.1%
viability, T/C (second compound 0.316 µM, first compound 0.000316 µM): 107%
viability, T/C (second compound 0.316 µM, first compound 0.001 µM): 109%
viability, T/C (second compound 0.316 µM, first compound 0.00316 µM): 97.8%
viability, T/C (second compound 0.316 µM, first compound 0.01 µM): 103%
viability, T/C (second compound 0.316 µM, first compound 0.0316 µM): 95.7%
viability, T/C (second compound 0.316 µM, first compound 0.1 µM): 77.7%
viability, T/C (second compound 1 µM, first compound 0.000316 µM): 113%
viability, T/C (second compound 1 µM, first compound 0.001 µM): 104%
viability, T/C (second compound 1 µM, first compound 0.00316 µM): 106%
viability, T/C (second compound 1 µM, first compound 0.01 µM): 109%
viability, T/C (second compound 1 µM, first compound 0.0316 µM): 97.8%
viability, T/C (second compound 1 µM, first compound 0.1 µM): 78.2%
viability, T/C (second compound 3.16 µM, first compound 0.000316 µM): 99.6%
viability, T/C (second compound 3.16 µM, first compound 0.001 µM): 99.9%
viability, T/C (second compound 3.16 µM, first compound 0.00316 µM): 103%
viability, T/C (second compound 3.16 µM, first compound 0.01 µM): 99.3%
viability, T/C (second compound 3.16 µM, first compound 0.0316 µM): 97.5%
viability, T/C (second compound 3.16 µM, first compound 0.1 µM): 84.8%
viability, T/C (second compound 10 µM, first compound 0.000316 µM): 106%
viability, T/C (second compound 10 µM, first compound 0.001 µM): 94.7%
viability, T/C (second compound 10 µM, first compound 0.00316 µM): 101%
viability, T/C (second compound 10 µM, first compound 0.01 µM): 95.1%
viability, T/C (second compound 10 µM, first compound 0.0316 µM): 92.3%
viability, T/C (second compound 10 µM, first compound 0.1 µM): 87%
